According to ChEMBL document CHEMBL1201862, “PubChem BioAssay data set” (2004):
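Exposure lasted 48 hours, with cells grown in 96-well plates and compounds tested at five concentrations. Here, GI50 denotes the concentration required for 50% inhibition of growth.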 Active and inactive are the calls of the source. Rule as the data show it: active = GI50 up to about 1.1 µM and inactive = higher.

How the values were obtained:
Experiment in all cases: growth of human tumour cells (NCI), 48 h
786-0 = system: 786-0
A549 = system: A549
ACHN = system: ACHN
CCRF-CEM = system: CCRF-CEM
COLO 205 = system: COLO 205
DU-145 = system: DU-145
HCC 2998 = system: HCC 2998
HCT-116 = system: HCT-116
KM12 = system: KM12
MCF7 = system: MCF7
OVCAR-4 = system: OVCAR-4
OVCAR-8 = system: OVCAR-8
SF-539 = system: SF-539
SK-OV-3 = system: SK-OV-3
SN12C = system: SN12C
SW-620 = system: SW-620
T47D = system: T47D
U-251 = system: U-251
OVCAR-3 = system: OVCAR-3
HOP-92 = system: HOP-92

Row | SMILES | GI50 (786-0) | GI50 (A549) | GI50 (ACHN) | GI50 (CCRF-CEM) | GI50 (COLO 205) | GI50 (DU-145) | GI50 (HCC 2998) | GI50 (HCT-116) | GI50 (KM12) | GI50 (MCF7) | GI50 (OVCAR-4) | GI50 (OVCAR-8) | GI50 (SF-539) | GI50 (SK-OV-3) | GI50 (SN12C) | GI50 (SW-620) | GI50 (T47D) | GI50 (U-251) | GI50 (OVCAR-3) | GI50 (HOP-92)
1 | CCOP(=O)(OCC)/C(=C\n1ccc(=O)[nH]c1=S)C(=O)OC | > 100 µM (inactive) | > 100 µM (inactive) | > 100 µM (inactive) | > 100 µM (inactive) | > 100 µM (inactive) | > 100 µM (inactive) | > 100 µM (inactive) | > 100 µM (inactive) | > 100 µM (inactive) | > 100 µM (inactive) | > 100 µM (inactive) | > 100 µM (inactive) | > 100 µM (inactive) | > 100 µM (inactive) | > 100 µM (inactive) | > 100 µM (inactive) | > 100 µM (inactive) | > 100 µM (inactive) | – | –
2 | S=C(N1CCN(c2ccccc2)CC1)N1CCN(c2ccccc2)CC1 | > 100 µM (inactive) | > 100 µM (inactive) | > 100 µM (inactive) | 24.4 µM (inactive) | > 100 µM (inactive) | > 100 µM (inactive) | > 100 µM (inactive) | 81.8 µM (inactive) | > 100 µM (inactive) | > 100 µM (inactive) | > 100 µM (inactive) | > 100 µM (inactive) | – | > 100 µM (inactive) | > 100 µM (inactive) | > 100 µM (inactive) | > 100 µM (inactive) | > 100 µM (inactive) | > 100 µM (inactive) | –
3 | OC(Cc1ccccc1)(Cc1ccccc1)c1ccccc1 | 15.2 µM (inactive) | 19.5 µM (inactive) | 18.4 µM (inactive) | 20.7 µM (inactive) | – | 17.7 µM (inactive) | – | 16.2 µM (inactive) | 18.3 µM (inactive) | – | 16.9 µM (inactive) | 19 µM (inactive) | – | – | 17 µM (inactive) | 22.2 µM (inactive) | 33.7 µM (inactive) | 18.1 µM (inactive) | 18.2 µM (inactive) | 16.9 µM (inactive)
4 | O=C(/C=C(\Nc1ccccc1O)c1ccccc1)C(=O)NC12CC3CC(CC(C3)C1)C2 | > 10 µM (inactive) | – | > 10 µM (inactive) | 4.33 µM (inactive) | > 10 µM (inactive) | > 10 µM (inactive) | > 10 µM (inactive) | – | 6.95 µM (inactive) | > 10 µM (inactive) | > 10 µM (inactive) | > 10 µM (inactive) | 8.93 µM (inactive) | > 10 µM (inactive) | > 10 µM (inactive) | > 10 µM (inactive) | > 10 µM (inactive) | > 10 µM (inactive) | > 10 µM (inactive) | –
5 | OCC(O)C(O)C(C=NNc1ncnc2ccc(Br)cc12)=NNc1ncnc2ccc(Br)cc12 (centres undefined) | 0.834 µM (active) | 2.88 µM (inactive) | 0.729 µM (active) | – | 0.255 µM (active) | 1.34 µM (inactive) | – | 0.358 µM (active) | 2.72 µM (inactive) | 0.378 µM (active) | 0.383 µM (active) | 0.533 µM (active) | 1.94 µM (inactive) | 1.85 µM (inactive) | 2.39 µM (inactive) | 0.809 µM (active) | 0.373 µM (active) | 1.75 µM (inactive) | 0.339 µM (active) | 2.24 µM (inactive)
6 | O=S1(=O)OCCCOS(=O)(=O)C1Br | > 100 µM (inactive) | > 100 µM (inactive) | > 100 µM (inactive) | – | > 100 µM (inactive) | > 100 µM (inactive) | > 100 µM (inactive) | > 100 µM (inactive) | > 100 µM (inactive) | > 100 µM (inactive) | > 100 µM (inactive) | > 100 µM (inactive) | > 100 µM (inactive) | > 100 µM (inactive) | > 100 µM (inactive) | > 100 µM (inactive) | > 100 µM (inactive) | > 100 µM (inactive) | > 100 µM (inactive) | –
7 | COc1ccc2c(c1)C1OCCNC1CC2 (centres undefined) | > 100 µM (inactive) | > 100 µM (inactive) | > 100 µM (inactive) | > 100 µM (inactive) | > 100 µM (inactive) | > 100 µM (inactive) | – | > 100 µM (inactive) | > 100 µM (inactive) | > 100 µM (inactive) | – | > 100 µM (inactive) | > 100 µM (inactive) | > 100 µM (inactive) | > 100 µM (inactive) | > 100 µM (inactive) | > 100 µM (inactive) | > 100 µM (inactive) | – | –
8 | O=C(Nc1cccc([N+](=O)[O-])c1)c1nnn(-c2cccc([N+](=O)[O-])c2)c1O | > 100 µM (inactive) | > 100 µM (inactive) | > 100 µM (inactive) | > 100 µM (inactive) | > 100 µM (inactive) | > 100 µM (inactive) | – | > 100 µM (inactive) | > 100 µM (inactive) | > 100 µM (inactive) | – | > 100 µM (inactive) | 0.0322 µM (active) | > 100 µM (inactive) | > 100 µM (inactive) | > 100 µM (inactive) | > 100 µM (inactive) | > 100 µM (inactive) | – | –
9 | CC1=CC(=O)C(=C(C)C)CC1 | > 100 µM (inactive) | > 100 µM (inactive) | > 100 µM (inactive) | 28.9 µM (inactive) | > 10 µM (inactive) | > 100 µM (inactive) | – | > 100 µM (inactive) | > 100 µM (inactive) | > 100 µM (inactive) | > 100 µM (inactive) | > 100 µM (inactive) | – | > 100 µM (inactive) | > 100 µM (inactive) | – | > 100 µM (inactive) | > 100 µM (inactive) | > 100 µM (inactive) | –
10 | CC(C)C1OC(=O)C=C1Sc1ccccc1 (centres undefined) | > 100 µM (inactive) | > 100 µM (inactive) | > 100 µM (inactive) | > 100 µM (inactive) | > 100 µM (inactive) | > 100 µM (inactive) | > 100 µM (inactive) | > 100 µM (inactive) | > 100 µM (inactive) | > 100 µM (inactive) | > 100 µM (inactive) | > 100 µM (inactive) | > 100 µM (inactive) | > 100 µM (inactive) | > 100 µM (inactive) | > 100 µM (inactive) | > 100 µM (inactive) | > 100 µM (inactive) | > 100 µM (inactive) | –
11 | COC(=O)C1=C(CCC[C@H](C)O[Si](C)(C)C(C)(C)C)NC(=O)N2[C@@H](CCO)CC[C@H]12 | 14.5 µM (inactive) | 12.3 µM (inactive) | 16.2 µM (inactive) | – | 17.6 µM (inactive) | 19.1 µM (inactive) | – | 4.18 µM (inactive) | 18.3 µM (inactive) | – | 16.5 µM (inactive) | 15.5 µM (inactive) | 16.7 µM (inactive) | 15.8 µM (inactive) | 15 µM (inactive) | 20.1 µM (inactive) | 11.6 µM (inactive) | 15.5 µM (inactive) | 13.3 µM (inactive) | 14.2 µM (inactive)
12 | COc1ccc(N/N=C/C2=CC(C)(C)C(C#N)(C#N)C(O)=C2C#N)cc1 | 38.5 µM (inactive) | 25.6 µM (inactive) | 40.4 µM (inactive) | 35.5 µM (inactive) | 22.5 µM (inactive) | 77.8 µM (inactive) | – | 39 µM (inactive) | 32.5 µM (inactive) | 35.8 µM (inactive) | 50 µM (inactive) | 28.7 µM (inactive) | 26.1 µM (inactive) | – | 47.4 µM (inactive) | 40.9 µM (inactive) | 35.6 µM (inactive) | 45.1 µM (inactive) | 21.6 µM (inactive) | 17.1 µM (inactive)
13 | O=C1O/C(=C\C=C\CO)C=C1/C=C/CO [LISSOCLINOLIDE] | 12.5 µM (inactive) | 36.4 µM (inactive) | 24.2 µM (inactive) | 22.9 µM (inactive) | 2.23 µM (inactive) | 21 µM (inactive) | – | 14 µM (inactive) | 36.9 µM (inactive) | 36.3 µM (inactive) | 45.5 µM (inactive) | 19.2 µM (inactive) | 24.1 µM (inactive) | 61.2 µM (inactive) | 27.9 µM (inactive) | 18.2 µM (inactive) | 20.7 µM (inactive) | 40.8 µM (inactive) | 24.2 µM (inactive) | –
14 | Cc1n[nH]c(=O)n1/N=C/c1cccc(Cl)c1 | > 100 µM (inactive) | > 100 µM (inactive) | > 100 µM (inactive) | > 100 µM (inactive) | > 100 µM (inactive) | 35.6 µM (inactive) | > 100 µM (inactive) | > 100 µM (inactive) | > 100 µM (inactive) | > 100 µM (inactive) | 76.9 µM (inactive) | 64.7 µM (inactive) | 89.5 µM (inactive) | > 100 µM (inactive) | > 100 µM (inactive) | > 100 µM (inactive) | > 100 µM (inactive) | 65.5 µM (inactive) | > 100 µM (inactive) | –
15 | O=C(N/N=C/c1ccc(O)cc1)NNCCO | > 100 µM (inactive) | > 100 µM (inactive) | – | > 100 µM (inactive) | > 100 µM (inactive) | > 100 µM (inactive) | > 100 µM (inactive) | > 100 µM (inactive) | > 100 µM (inactive) | > 100 µM (inactive) | – | > 100 µM (inactive) | > 100 µM (inactive) | > 100 µM (inactive) | > 100 µM (inactive) | > 100 µM (inactive) | > 100 µM (inactive) | > 100 µM (inactive) | > 100 µM (inactive) | –
16 | CN1CCC/C1=N\C#N | > 100 µM (inactive) | > 100 µM (inactive) | > 100 µM (inactive) | > 100 µM (inactive) | > 100 µM (inactive) | > 100 µM (inactive) | > 100 µM (inactive) | > 100 µM (inactive) | > 100 µM (inactive) | > 100 µM (inactive) | > 100 µM (inactive) | > 100 µM (inactive) | > 100 µM (inactive) | > 100 µM (inactive) | > 100 µM (inactive) | > 100 µM (inactive) | > 100 µM (inactive) | > 100 µM (inactive) | > 100 µM (inactive) | –
